# Source: patent publication US12582625B2, “Methods for treating neuroblastoma” (priority 2015, dated 2026)
# Experiments:
# tumor putrescine levels = conditions: eflornithine infusion, without suppressing peripheral platelet counts; cited from earlier work
# [1] = toxicities related to DFMO alone
# 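For ALT elevation, maximum Grade 2, patients (%) in this document: Open-label multicenter phase I 3+3 dose escalation in patients aged 0-21 years with relapsed or refractory neuroblastoma, dosed twice daily.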
# 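For ALT elevation, maximum Grade 3, patients (%) in this document: Open-label multicenter phase I 3+3 dose escalation in patients aged 0-21 years with relapsed or refractory neuroblastoma, dosed twice daily.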
# 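For dose-limiting toxicities (DLTs) or drug related serious adverse events (SAEs) in this document: Open-label multicenter phase I 3+3 dose escalation in patients aged 0-21 years with relapsed or refractory neuroblastoma, dosed twice daily.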
# 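For tolerability in pediatric patients in this document: Open-label multicenter phase I 3+3 dose escalation in patients aged 0-21 years with relapsed or refractory neuroblastoma, dosed twice daily.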
smiles,measurement,setting,value
"NCCCC(N)(C(=O)O)C(F)F (centres unmarked) [DFMO, 2,5-diamino-2-(difluoromethyl) pentanoic acid]",decrease in tumor putrescine levels,tumor putrescine levels,90%
same,dose-limiting toxicities (DLTs) or drug related serious adverse events (SAEs),"500-1500 mg/m^2 BID, all dose levels",No dose-limiting toxicities (DLTs) or drug related serious adverse events (SAEs) were observed
same,tolerability in pediatric patients,500-1500 mg/m^2 twice per day by mouth,well tolerated
same,"ALT elevation, maximum Grade 2, patients (%)",Cycle 1 (N = 21),1 (5%)
same,"ALT elevation, maximum Grade 3, patients (%)",Cycle 1 (N = 21),0
same,"ALT elevation, maximum Grade 4, patients (%)",Cycle 1 (N = 21),0
same,"ALT elevation, maximum Grade 5, patients (%)",Cycle 1 (N = 21),0
same,"AST elevation, maximum Grade 2, patients (%)",Cycle 1 (N = 21),0
same,"AST elevation, maximum Grade 3, patients (%)",Cycle 1 (N = 21),1 (5%)
same,"AST elevation, maximum Grade 4, patients (%)",Cycle 1 (N = 21),0
same,"AST elevation, maximum Grade 5, patients (%)",Cycle 1 (N = 21),0
same,"Anemia, maximum Grade 2, patients (%)",Cycle 1 (N = 21),2 (10%)
same,"Anemia, maximum Grade 3, patients (%)",Cycle 1 (N = 21),0
same,"Anemia, maximum Grade 4, patients (%)",Cycle 1 (N = 21),1 (5%)
same,"Anemia, maximum Grade 5, patients (%)",Cycle 1 (N = 21),0
same,"Anorexia, maximum Grade 2, patients (%)",Cycle 1 (N = 21),0
same,"Anorexia, maximum Grade 3, patients (%)",Cycle 1 (N = 21),1 (5%)
same,"Anorexia, maximum Grade 4, patients (%)",Cycle 1 (N = 21),0
same,"Anorexia, maximum Grade 5, patients (%)",Cycle 1 (N = 21),0
same,"Conjunctivitis, maximum Grade 2, patients (%)",Cycle 1 (N = 21),1 (5%)
same,"Conjunctivitis, maximum Grade 3, patients (%)",Cycle 1 (N = 21),0
same,"Conjunctivitis, maximum Grade 4, patients (%)",Cycle 1 (N = 21),0
same,"Conjunctivitis, maximum Grade 5, patients (%)",Cycle 1 (N = 21),0
same,"Constipation, maximum Grade 2, patients (%)",Cycle 1 (N = 21),1 (5%)
same,"Constipation, maximum Grade 3, patients (%)",Cycle 1 (N = 21),0
same,"Constipation, maximum Grade 4, patients (%)",Cycle 1 (N = 21),0
same,"Constipation, maximum Grade 5, patients (%)",Cycle 1 (N = 21),0
same,"Diarrhea, maximum Grade 2, patients (%)",Cycle 1 (N = 21),1 (5%)
same,"Diarrhea, maximum Grade 3, patients (%)",Cycle 1 (N = 21),0
same,"Diarrhea, maximum Grade 4, patients (%)",Cycle 1 (N = 21),0
same,"Diarrhea, maximum Grade 5, patients (%)",Cycle 1 (N = 21),0
same,"GGT elevation, maximum Grade 2, patients (%)",Cycle 1 (N = 21),1 (5%)
same,"GGT elevation, maximum Grade 3, patients (%)",Cycle 1 (N = 21),0
same,"GGT elevation, maximum Grade 4, patients (%)",Cycle 1 (N = 21),0
same,"GGT elevation, maximum Grade 5, patients (%)",Cycle 1 (N = 21),0
same,"Hypoalbumenia, maximum Grade 2, patients (%)",Cycle 1 (N = 21),1 (5%)
same,"Hypoalbumenia, maximum Grade 3, patients (%)",Cycle 1 (N = 21),0
same,"Hypoalbumenia, maximum Grade 4, patients (%)",Cycle 1 (N = 21),0
same,"Hypoalbumenia, maximum Grade 5, patients (%)",Cycle 1 (N = 21),0
same,"Hypophosphatemia, maximum Grade 2, patients (%)",Cycle 1 (N = 21),1 (5%)
same,"Hypophosphatemia, maximum Grade 3, patients (%)",Cycle 1 (N = 21),0
same,"Hypophosphatemia, maximum Grade 4, patients (%)",Cycle 1 (N = 21),0
same,"Hypophosphatemia, maximum Grade 5, patients (%)",Cycle 1 (N = 21),0
same,"Infection, sinus, maximum Grade 2, patients (%)",Cycle 1 (N = 21),0
same,"Infection, sinus, maximum Grade 3, patients (%)",Cycle 1 (N = 21),0
same,"Infection, sinus, maximum Grade 4, patients (%)",Cycle 1 (N = 21),0
same,"Infection, sinus, maximum Grade 5, patients (%)",Cycle 1 (N = 21),0
same,"Mouth pain, maximum Grade 2, patients (%)",Cycle 1 (N = 21),0
same,"Mouth pain, maximum Grade 3, patients (%)",Cycle 1 (N = 21),0
same,"Mouth pain, maximum Grade 4, patients (%)",Cycle 1 (N = 21),0
same,"Mouth pain, maximum Grade 5, patients (%)",Cycle 1 (N = 21),0
same,"Nausea, maximum Grade 2, patients (%)",Cycle 1 (N = 21),0
same,"Nausea, maximum Grade 3, patients (%)",Cycle 1 (N = 21),0
same,"Nausea, maximum Grade 4, patients (%)",Cycle 1 (N = 21),0
same,"Nausea, maximum Grade 5, patients (%)",Cycle 1 (N = 21),0
same,"Neuropathy, maximum Grade 2, patients (%)",Cycle 1 (N = 21),0
same,"Neuropathy, maximum Grade 3, patients (%)",Cycle 1 (N = 21),0
same,"Neuropathy, maximum Grade 4, patients (%)",Cycle 1 (N = 21),0
same,"Neuropathy, maximum Grade 5, patients (%)",Cycle 1 (N = 21),0
same,"Neutrophil count decrease, maximum Grade 2, patients (%)",Cycle 1 (N = 21),1 (5%)
same,"Neutrophil count decrease, maximum Grade 3, patients (%)",Cycle 1 (N = 21),1 (5%)
same,"Neutrophil count decrease, maximum Grade 4, patients (%)",Cycle 1 (N = 21),0
same,"Neutrophil count decrease, maximum Grade 5, patients (%)",Cycle 1 (N = 21),0
same,"Pain, maximum Grade 2, patients (%)",Cycle 1 (N = 21),0
same,"Pain, maximum Grade 3, patients (%)",Cycle 1 (N = 21),0
same,"Pain, maximum Grade 4, patients (%)",Cycle 1 (N = 21),0
same,"Pain, maximum Grade 5, patients (%)",Cycle 1 (N = 21),0
same,"Platelet count decrease, maximum Grade 2, patients (%)",Cycle 1 (N = 21),1 (5%)
same,"Platelet count decrease, maximum Grade 3, patients (%)",Cycle 1 (N = 21),1 (5%)
same,"Platelet count decrease, maximum Grade 4, patients (%)",Cycle 1 (N = 21),0
same,"Platelet count decrease, maximum Grade 5, patients (%)",Cycle 1 (N = 21),0
same,"Rash, maximum Grade 2, patients (%)",Cycle 1 (N = 21),0
same,"Rash, maximum Grade 3, patients (%)",Cycle 1 (N = 21),0
same,"Rash, maximum Grade 4, patients (%)",Cycle 1 (N = 21),0
same,"Rash, maximum Grade 5, patients (%)",Cycle 1 (N = 21),0
same,"Sleep disturbance, maximum Grade 2, patients (%)",Cycle 1 (N = 21),1 (5%)
same,"Sleep disturbance, maximum Grade 3, patients (%)",Cycle 1 (N = 21),0
same,"Sleep disturbance, maximum Grade 4, patients (%)",Cycle 1 (N = 21),0
same,"Sleep disturbance, maximum Grade 5, patients (%)",Cycle 1 (N = 21),0
same,"Urinary retention, maximum Grade 2, patients (%)",Cycle 1 (N = 21),1 (5%)
same,"Urinary retention, maximum Grade 3, patients (%)",Cycle 1 (N = 21),0
same,"Urinary retention, maximum Grade 4, patients (%)",Cycle 1 (N = 21),0
same,"Urinary retention, maximum Grade 5, patients (%)",Cycle 1 (N = 21),0
same,"Vomiting, maximum Grade 2, patients (%)",Cycle 1 (N = 21),1 (5%)
same,"Vomiting, maximum Grade 3, patients (%)",Cycle 1 (N = 21),0
same,"Vomiting, maximum Grade 4, patients (%)",Cycle 1 (N = 21),0
same,"Vomiting, maximum Grade 5, patients (%)",Cycle 1 (N = 21),0
same,"White blood cell decreased, maximum Grade 2, patients (%)",Cycle 1 (N = 21),0
same,"White blood cell decreased, maximum Grade 3, patients (%)",Cycle 1 (N = 21),0
same,"White blood cell decreased, maximum Grade 4, patients (%)",Cycle 1 (N = 21),0
same,"White blood cell decreased, maximum Grade 5, patients (%)",Cycle 1 (N = 21),0
same,"ALT increase, N of subjects",[1],1
same,"ANC decrease, N of subjects",[1],2
same,"AST increase, N of subjects",[1],1
same,"anemia, N of subjects",[1],3
same,"anorexia, N of subjects",[1],1
same,"constipation, N of subjects",[1],1
same,"decreased platelet count, N of subjects",[1],2
same,"diarrhea, N of subjects",[1],1
same,"hypoalbuminemia, N of subjects",[1],1
same,"hypophosphatemia, N of subjects",[1],1
same,"increased GGT, N of subjects",[1],1
same,"infection (conjunctivitis), N of subjects",[1],1
same,"sleep disturbance, N of subjects",[1],1
same,"urinary retention, N of subjects",[1],1
same,"vomiting, N of subjects",[1],1
same,maximum tolerated dose (MTD),up to 1500 mg/m^2 BID,not established
